# Measurements as given in patent US10881648B2, “Combination therapy including an MDM2 inhibitor and one or more additional pharmaceutically active agents for the treatment of cancers” (AMGEN INC., priority 2013, dated 2021).
# Test system: A204 cells
# Assay: Two-way combination growth inhibition, CellTiter-Glo cell viability, 72 h, Loewe additivity analysis
# Assay type: cell-based
# Conditions: FIG. 1a, compound crossed with itself (A×A, 1×1)
# Protocol: Cell lines were purchased from American Type Culture Collection (ATCC), German Collection of Microorganisms and Cell Cultures (DSMZ), and Japanese Collection of Research Bioresources (JCRB). Each line was cultured in its recommended growth medium. Cell line A375sq2 was made in accordance with the procedure set forth in J. Med. Chem. 2009, 52, 6189-6192, footnote 13.
# For Examples 1 to 71, cells were seeded into 384-well cell culture plates at initial densities ranging from 300 to 7500 cells per well in a 30 μL volume, depending on the growth rate of the cell line, so that adherent cells would remain at subconfluent densities by the end of the 72-hour treatment period. […] CellTiter-Glo® Luminescent Cell Viability Assay (Promega; Madison, Wis.) was used to determine the number of viable cells based on quantitation of the amount of ATP present, an indicator of metabolically active cells. Luminescence was measured with an EnVision® Multilabel Reader (Perkin Elmer; Waltham, Mass.) for each cell line at time zero (V0) before the addition of compounds, as well as after 72 hours of compound treatment (T72). Growth inhibition (GI) was calculated according to the following equations, where V72 was luminescence of DMSO control at 72 hours and T72 was luminescence of the compound-treated sample: if T72≥V0, then GI=100×(1−((T72−V0)/(V72−V0))); if T72<V0, then […]. […]
smiles,measurement,value
"CC(C)[C@@H](CS(=O)(=O)C(C)C)N1C(=O)[C@@](C)(CC(=O)O)C[C@H](c2cccc(Cl)c2)[C@H]1c1ccc(Cl)cc1 [Compound A, 2-((3R,5R,6S)-5-(3-chlorophenyl)-6-(4-chlorophenyl)-1-((S)-1-(isopropylsulfonyl)-3-methylbutan-2-yl)-3-methyl-2-oxopiperidin-3-yl)acetic acid]",synergy score for the self-cross combination,0.621
